Consider 4 compounds from patent US20110039811A1, “TREATING HYPERGLYCEMIA WITH 25-HYDROXYVITAMIN D3” (priority 2008, published 2011).

For data set [1] the following is noted: cited from earlier work.
A further data set has as its system blood glucose. The data set is described as follows: Clinical trial: fasting glucose levels, week 15 versus week 2. Conditions: for effect on glucose levels (conclusion in words): daily or weekly oral dosing, week 15 vs week 2; for number of individuals with lower glucose levels at week 15 as compared to week 2: of ten individuals receiving daily (20 μg) or weekly (140 μg) oral dosing, postmenopausal women, no rigorous statistics. In kind it is in vivo, human. The text has this: (§1) Each group included five subjects.
(§2) Equimolar quantities of both substances were investigated.
(§3) Each dosage was consumed orally at breakfast.
(§4) Rigorous statistical analysis of the results obtained could not be performed for two reasons. First, upon unblinding the data, it was discovered that there was a difference between the groups' baseline glucose levels, and that this difference continued throughout the study. Secondly, upon examining individual's insulin levels, it was noted that a number of them were recorded as “0.0” in at least one visit.

Data set [2] deals with plasma glucose. The data set is described as follows: Mouse study 2: plasma glucose in a model of muscle atrophy (hindlimb unloading). In kind it is in vivo, mice. The settings on record: for change in blood glucose levels versus control with unloading (in words): study 2, Table 2; for Plasma glucose: study 2, hindlimb unloading, 50 μg/kg/bw (combination 50+50) daily by gavage for 3 weeks, control with unloading 12.89, without unloading 12.02. The text has this:
Briefly, nine month old animals were randomized at the beginning of the study into five groups with 10 animals per group. The animals were placed in special cages for duration of three weeks and their tails were suspended, which leads to skeletal muscle atrophy of the unloaded hindlimbs. An additional group without hindlimb unloading was placed in identical cages in order to detect the effects of unloading. All mice were housed separately and had free access to feed and water ad libidum. All animals were treated daily by gavage throughout the 3 weeks of the experiment: • 1. Control group without unloading received vehicle (gelatine) • 2. Control group with unloading received vehicle (gelatine) • 3. […] The 25-OH D3 group with unloading received 25-OH D3 (50 μg/kg/bw) • 5.

Data set [3] relates to plasma glucose. The data set is described as follows: Mouse study 1: plasma glucose in a model of muscle hypertrophy. In kind it is in vivo, mice. The procedure: In the first study, the effects of 25-OH D3 on blood glucose were determined in a model of muscle hypertrophy. Briefly, two groups of 10 animals were anesthetized and the left hindlimb of the animals was fixed. All animals received an analgesic. A small incision was made through the skin over the gastrocnemius muscle. The complete gastrocnemius muscle and his tendons were exposed. Both heads of the gastrocnemius muscle were carefully dissected from the underlying intact muscles and care was taken not to rupture nerves and vessels. The skin was closed with a silk suture and the animals were returned into the cages. After recovering from anesthesia the animals could move directly without problems in their cages. Animals were treated for three weeks by gavage with 25-OH D3 at a daily dosage of 50 μg/kg and the control group received vehicle. At the end of the study, blood was taken and plasma glucose concentration was analyzed by a Hitachi 912 Automatic Analyser.

The test system of another data set is insulin levels. The data set is described as follows: Clinical trial: insulin levels, week 15 versus week 2. The class given is in vivo, human. Conditions: for number of individuals with higher insulin levels at week 15 than at week 2 / number of individuals with lower insulin level at week 15 than at week 2: only individuals without a "0.0" insulin result: four for Vitamin D3, five for 25-OH D3, daily or weekly dosing.
Excerpt: as §1, §2, §3, §4

For 25-hydroxyvitamin D, in data set [1] (in vivo), the “blood concentration at which hypercalcemia may occur” value is “greater than 375 nmol/L”.

Turning to `C=C1CC[C@H](O)C/C1=C/C=C1\CCC[C@]2(C)[C@@H]([C@H](C)CCCC(C)(C)O)CC[C@@H]12` [25-OH D3, 25-hydroxyvitamin D3], in the data set with blood glucose, the “effect on glucose levels (conclusion in words)” value was “can lower glucose levels” and the “number of individuals with lower glucose levels at week 15 as compared to week 2” value is given as 6 of 10. For the same compound, in the data set with plasma glucose [2], the “change in blood glucose levels versus control with unloading (in words)” value is on record as “moderate decrease in blood glucose levels” and the Plasma glucose is reported as 12.75 mmol/L. For the same compound, the “change in plasma glucose compared to control group (in words)” value in the data set with plasma glucose [3] (study 1, Table 1) was “decrease in plasma glucose”. The compound also came in with a Plasma glucose with plasma glucose [3] (study 1, muscle hypertrophy model, 50 μg/kg daily by gavage for three weeks, vehicle control 15.53) of 14.65 mmol/L. For the same compound, the “ability to improve insulin sensitivity (conclusion in words)” value in the data set with insulin levels (compared with Vitamin D3) is “better ability to improve insulin sensitivy than does Vitamin D3”. Besides, in the data set on insulin levels, the “number of individuals with higher insulin levels at week 15 than at week 2” value is given as “one” and the “number of individuals with lower insulin level at week 15 than at week 2” value is given as “four”.

Regarding `C=C1CC[C@H](O)C/C1=C/C=C1\CCC[C@]2(C)[C@@H]([C@H](C)CCCC(C)C)CC[C@@H]12` [Vitamin D3, cholecalciferol], in the data set with blood glucose, the “effect on glucose levels (conclusion in words)” value is given as “can lower glucose levels” and the “number of individuals with lower glucose levels at week 15 as compared to week 2” value was 7. Further, in the data set with plasma glucose [2], the “change in blood glucose levels versus control with unloading (in words)” value is on record as “moderate decrease in blood glucose levels” and the Plasma glucose is on record as 12.69 mmol/L. Besides, in the data set with insulin levels, the “number of individuals with higher insulin levels at week 15 than at week 2” value was “three” and the “number of individuals with lower insulin level at week 15 than at week 2” value was “one”.

Turning to Vitamin D, in data set [1] (ingestion of 250 μg/day Vitamin D), the “blood concentration of 25-hydroxyvitamin D after ingestion as a dietary supplement” value was “about 200 nmol/L”.
